Values after ≈ are worked out from the molar mass of the structure shown. Read-outs that look alike come from different tables or passages of the source.
What was measured:
[1] = tested on: MT1 gene in WT C. neoformans; test: MT1 gene expression by qPCR normalized to ACT1; assay type: cell-based, Cryptococcus neoformans; settings: 30 min; for MT1 induction, compound alone: 10 μM compound, no Cu
Experimental: FIG. 6 is a graph showing Cu+8HQ (not QBP) increase expression levels of the MT1 gene. An overnight growth of WT C. neoformans was diluted in SC media to an OD600 of 0.2, incubated for 3 h to begin log phase growth, and treated with Cu and/or compound as indicated. After 30 min, cells were harvested and RNA was extracted, with subsequent RT-PCR to produce cDNA. Fold-change of MT1 was quantified using qPCR and normalized to ACT1. The strength of MT1 induction increases with [Cu].
5. 8HQ Increases the Cu Burden on C. neoformans. Our working hypothesis for the mechanism of action of 8HQ is that it increases the microbial burden of bioreactive Cu. If 8HQ translocates Cu into the cell in a bioavailable form, we would expect expression levels of proteins involved in Cu homeostasis to be sensitive to that influx. […] Metallothionein proteins are known to detoxify Cu and other metals by encasing them within cysteine-rich coordination sites. Increased expression of MT1 is consistent with our hypothesis that 8HQ increases bioavailable Cu, which is sensed by the cell in the form of MT1 transcription.

[2] = tested on: C. neoformans H99 strain; test: C. neoformans growth inhibition (OD600 growth curves, MIC); assay type: cell-based, Cryptococcus neoformans; settings: for MIC: Cryptococcus neoformans, H99STRAIN, growth inhibition of C. neoformans, no Cu added; for C. neoformans growth with Cu, without H2O2: SC media + 10 μM CuSO4, no H2O2
Experimental: (§1) Top: Growth of C. neoformans H99 strain in SC media monitored by optical density (OD) over the course of 50 hours, where an increase in OD600 indicates normal growth. […] Bottom: In a follow up experiment to the growth curve assay shown on top, samples were taken after 50 h and plated to determine colony-forming units (CFUs).
The ability of 8-HQ to inhibit C. neoformans growth was tested with respect to metal specificity. The concentration of the indicated metals was held constant at 10 μM and cells were incubated in the presence of escalating doses of 8HQ from 0 to 50 μM. Growth was monitored over a time course in hours (x-axis) and the optical density at 600 nm was plotted at each time (y-axis).
WT C. neoformans H99 strain was grown in SC media+/−10 μM CuSO4 and 8HQ or QBP at indicated concentrations. Growth was monitored by OD600 and normalized to 100% viability for untreated controls after 50 h at 30° C.

[3] = tested on: C. neoformans H99 strain; test: as above; assay type: cell-based, Cryptococcus neoformans; settings: for Growth inhibition of C. neoformans in the presence of 1 mM CuSO4: QBP up to the 100 μM dose tested; for MIC: Cryptococcus neoformans, H99STRAIN
[4] = tested on: C. neoformans H99 strain; settings: 10 μM or higher 8HQ in the presence of 10 μM CuSO4
Experimental: as §1

[5] = tested on: C. neoformans CTR1/4Δ strain; settings: YPEG media without Cu supplementation
Experimental: (§2) FIG. 7 is a graph showing the Effects of 8HQ on growth of C. neoformans mutants. A) WT C. neoformans and a MT1/2Δ[…], strain were grown in SC media with 10 μM CuSO4 and increasing [8HQ].

[6] = tested on: C. neoformans MT1/2Δ strain; settings: SC media with 10 μM CuSO4
Experimental: as §2

[7] = tested on: S. aureus; test: S. aureus dose response in tryptic soy broth; assay type: cell-based; settings: no supplemental Cu
Experimental: FIG. 8 is a graph showing that S. Aureus dose response to 8HQ and QBP. Under these conditions, 8HQ inhibits S. Aureus growth at concentrations above ˜150 μM, whereas QBP in nontoxic up to ˜2.5 mM. Supplemental Cu was not added in these experiments, so presumably 8HQ is using Cu present in the tryptic soy broth medium.
(§3) 6. Broad Spectrum Activity The antimicrobial properties of oxine (8HQ) against a broad spectrum of fungal and bacterial pathogens has long been recognized. Taking advantage of this cytotoxic activity while minimizing damage to the host has prevented the application of these compounds to combat infectious disease in humans. […] We tested this hypothesis by comparing the cytotoxicity of 8HQ vs QBP against other microbes. Preliminary results indeed show a differential cytotoxicy of 8HQ vs QBP in S. aureus (FIG. 8), E. coli (FIG. 9) and M. marinum (data not shown). In these preliminary results, supplemental Cu was not added to the growth media, so presumably 8HQ uses the basal Cu present in the media to inflict its growth inhibitory action.

[8] = tested on: E. coli; test: E. coli dose response in M9 minimal medium; assay type: cell-based; settings: no supplemental Cu
Experimental: FIG. 9 is a graph showing that E. coli dose response to 8HQ and QBP. Under these conditions, 8HQ inhibits E. coli growth at concentrations above ˜1.5 mM, whereas QBP in nontoxic up to 10 mM. Supplemental Cu was not added in these experiments, so presumably 8HQ is using Cu present in the M9 minimal medium.
as §3

[9] = tested on: murine macrophage-like J774A.1 cells; test: Viability of macrophage-like cells (CellTiter-Glo)
Experimental: Cells were seeded at 1×10^5 cells/mL in 96-well plate in DMEM+10% FBS, incubated at 37° C. for 12 h, and assayed for viability with CellTiter-Glo®.

[10] = Tolerability of intraperitoneal administration to mice; assay type: in vivo; settings: 2 mg/kg or 10 mg/kg every second day over a two-week period
Excerpt: 4. Toxicity of Prochelator is Activated by H2O2.

[11] = tested on: M. marinum; test: M. marinum cytotoxicity comparison (data not shown); assay type: cell-based; settings: no supplemental Cu, preliminary
Excerpt: 6. Broad Spectrum Activity The antimicrobial properties of oxine (8HQ) against a broad spectrum of fungal and bacterial pathogens has long been recognized. Taking advantage of this cytotoxic activity while minimizing damage to the host has prevented the application of these compounds to combat infectious disease in humans.

[12] = in vitro; 25° C.; cited from earlier work
[13] = tested on: IFN-γ and LPS-activated primary bone marrow derived macrophage cells (BMM); test: Viability of activated primary bone marrow derived macrophages; settings: doses up to 50-100 μM, even with supplemental Cu; data not shown
[14] = growth inhibition of C. neoformans, * 1 mM Cu2+, read-out: MIC (with added Copper(II) Sulfate)
[15] = doses up to 50-100 μM, even with supplemental Cu

Cc1cc(-c2ccc(S(=O)(=O)O)cc2)c2ccc3c(-c4ccc(S(=O)(=O)O)cc4)cc(C)nc3c2n1 [BCS]
Change in MT1 expression, control chelator [1]: does not lead to a change in MT1 expression

Oc1ccc2ncccc2c1 [6HQ, 6-hydroxyquinoline]
MIC [2]: > 100 µM | Growth inhibition of C. neoformans in the presence of 1 mM CuSO4 [3]: does not inhibit growth | MIC [3, 14]: > 100 µM

O=S(=O)([O-])[O-].[Cu+2] [copper, Copper(II) Sulfate]
C. neoformans growth (OD600), copper tested individually ([3]; 1 mM copper alone, SC media, 50 hours): not affected

Oc1cccc2cccnc12 [8HQ, 8-hydroxyquinoline]
C. neoformans growth with Cu, without H2O2 ([2]; 50 h at 30° C.): inhibits growth | Colony-forming units (CFUs) after 50 h [4]: absence of CFUs | MT1 induction, compound alone [1]: do not cause robust induction of MT1 | MT1 levels, 8HQ+Cu ([1]; 8HQ+Cu (10 pM each)): MT1 levels greater than what is seen with 100 μM CuSO4 alone | Growth of transporter mutant on addition of 8HQ [5]: promotes growth | 8HQ concentration at which growth defect begins [6]: 6.25 µM | Concentration above which S. aureus growth is inhibited [7]: ~150 µM | Concentration above which E. coli growth is inhibited [8]: ~1.5 mM | C. neoformans growth (OD600), compound tested individually ([3]; 100 μM 8HQ alone, SC media, 50 hours): not affected | MIC ([3]; read-out: MIC (no Cu added), growth inhibition of C. neoformans, no Cu added): > 100 µM | MIC ([3]; read-out: MIC (with added Copper(II) Sulfate), growth inhibition of C. neoformans, * 10 M Cu2+): 5 µM (≈ 0.726 µg/mL) | MIC ([3]; read-out: MIC of 8HQ with supplemental Cu, 10 μM supplemental Cu (CuSO4)): 5 µM | MIC ([3]; read-out: MIC of 8HQ with supplemental iron, 10 μM supplemental iron): 50 µM | MIC ([3]; read-out: MIC of 8HQ with supplemental silver, 10 μM supplemental silver): 25 µM | MIC ([3]; read-out: MIC of 8HQ with supplemental zinc, 10 μM supplemental zinc): 50 µM | IC50, cell viability of J774A.1 cells ([9]; medium supplemented with 10 μM CuSO4): sub-μM | IC50 ([9]; read-out: IC50, cell viability of J774A.1 cells, no supplemental Cu): ~5 µM

CC1(C)C2CC3OB(c4cccc5cccnc45)O[C@]3(C)C1C2 (stereo in doubt) [QBP, quinoline boronic ester]
MIC [2]: > 100 µM | C. neoformans growth with Cu and H2O2 ([2]; QBP/H2O2/Cu, SC media, 50 h at 30° C.): inhibited cell growth as well as 8HQ/Cu | C. neoformans growth with Cu, without H2O2 ([2]; 50 h at 30° C.): did not inhibit cell growth | Toxicity to C. neoformans [2, 15]: nontoxic | MT1 induction, compound alone [1]: do not cause robust induction of MT1 | MT1 response, QBP+Cu ([1]; QBP+Cu (10 μM each)): responds identically to treatment with 10 μM CuSO4 alone | Concentration up to which nontoxic to S. aureus [7]: ~2.5 mM | Concentration up to which nontoxic to E. coli [8]: up to 10 mM | Adverse effects in mice [10]: no obvious adverse affects | Toxicity to M. marinum compared with 8HQ [11]: significantly less toxic | Growth inhibition of C. neoformans in the presence of 1 mM CuSO4 [3]: nontoxic | MIC [3, 14]: > 100 µM | Rate constant of conversion to 8HQ upon reaction with H2O2 [12]: 0.25 M⁻¹ s⁻¹ | Toxicity to J774A.1 cells [9, 15]: nontoxic | Toxicity to BMM [13]: nontoxic

From patent US9526740B2, “Prochelators as broad-spectrum antimicrobial agents and methods of use” (Duke University, priority 2013, dated 2016)
